pIC50: −log10 of the molar value. Read-outs that look alike come from different tables or passages of the source.
How the values were obtained:
[1] = molecular target: PPO AMATU WT (SEQ ID NO: 1) (Amaranthus tuberculatus, UniProt Q0NZW9); assay: PPO enzyme assay (recombinant); format: biochemical; conditions: 150 μM Protogen, molar concentration for 50% enzyme inhibition
[2] = system: Soybean CD215 WT (non-transgenic); format: in vivo; conditions: post, single plants
[3] = system: Soybean cv Jake WT (non-transgenic); format: in vivo; conditions: post, single plants
Protocol: Soybean cv Jake is transformed as previously described by Siminszky et al., Phytochem Rev. 5:445-458 (2006). After regeneration, transformants are transplanted to soil in small pots, placed in growth chambers (16 hr day/8 hr night; 25° C. day/23° C. night; 65% relative humidity; 130-150 microE m-2 s-1) and subsequently tested for the presence of the T-DNA via Taqman analysis. After a few weeks, healthy, transgenic positive, single copy events are transplanted to larger pots and allowed to grow in the growth chamber. An optimal shoot for cutting is about 3-4 inches tall, with at least two nodes present. Each cutting is taken from the original transformant (mother plant) and dipped into rooting hormone powder (indole-3-butyric acid, IBA). The cutting is then placed in oasis wedges inside a bio-dome. The mother plant is taken to maturity in the greenhouse and harvested for seed. Wild type cuttings are also taken simultaneously to serve as negative controls. The cuttings are kept in the bio-dome for 5-7 days and then transplanted to 3 inch pots and then acclimated in the growth chamber for two more days. Subsequently, the cuttings are transferred to the greenhouse, acclimated for approximately 4 days prior to spray. T0 or 2-week old T1 plants are sprayed with a treatment of the phenyluracils as disclosed SUPRA and optionally photosynthesis inhibitor diuron as negative control. Herbicide injury evaluations are taken at 2, 7, 14 and 21 days after treatment.
Evaluation performed 3 Days After Treatment (DAT) and 1 Week after Treatment (WAT) and shown as injury (0-9) relative to non-transgenic treated plants. Injury Scale: 0-9, 0=no injury, 9=maximum injury. Note: segregating lines.
The following gives a definition of the injury scores measured above: • Score Description of injury • 0 No Injury • 1 Minimal injury, only a few patches of leaf injury or chlorosis. • 2 Minimal injury with slightly stronger chlorosis. Overall growth points remain undamaged. • 3 Slightly stronger injury on secondary leaf tissue, but primary leaf and growth points are still undamaged. • 4 Overall plant morphology is slightly different, some chlorosis and necrosis in secondary growth points and leaf tissue. Stems are intact. Regrowth is highly probable within 1 week. • 5 Overall plant morphology is clearly different, some chlorosis and necrosis on a few leaves and growth points, but primary growth point is intact. Stem tissue is still green. Regrowth is highly probably within 1 week. • 6 Strong injury can be seen on the new leaflet growth. Plant has a high probability to survive only through regrowth at different growth points. Most of the leaves are chlorotic/necrotic but stem tissue is still green. May have regrowth but with noticeable injured appearance. • 7 Most of the active growth points are necrotic. There may be a single growth point that could survive and may be partially chlorotic or green and partially necrotic. Two leaves may still be chlorotic with some green; the rest of the plant including stem is necrotic. • 8 Plant will likely die, and all growth points are necrotic. One leaf may still be chlorotic with some green. The remainder of the plant is necrotic. • 9 Plant is dead.

CCOC(=O)C(OC)Oc1ccccc1Oc1cc(-n2c(=O)cc(C(F)(F)F)n(C)c2=O)c(F)cc1Br (stereo not drawn) [phenyluracil 2, ethyl 2-[2-[2-bromo-4-fluoro-5-[3-methyl-2,6-dioxo-4-(trifluoromethyl)pyrimidin-1-yl]phenoxy]phenoxy]-2-methoxy-acetate]
pIC50 [1]: 9.49

COC(Oc1ccccc1Oc1cc(-n2c(=O)cc(C(F)(F)F)n(C)c2=O)c(F)cc1Br)C(=O)O (stereo not drawn) [phenyluracil 3, 2-[2-[2-bromo-4-fluoro-5-[3-methyl-2,6-dioxo-4-(trifluoromethyl)pyrimidin-1-yl]phenoxy]phenoxy]-2-methoxy-acetic acid]
pIC50 [1]: 9.74

COC(=O)C(OC)Oc1ccccc1Oc1cc(-n2c(=O)cc(C(F)(F)F)n(C)c2=O)c(F)cc1Br (stereo not drawn) [Phenyluracil No. 1]
injury (0-9) ([2]; 25 g/ha + 1% MSO, 1WAT): 9 (Plant is dead.) | injury (0-9) ([2]; 25 g/ha + 1% MSO, 3DAT): 9 (Plant is dead.) | injury (0-9) ([2]; 50 g/ha + 1% MSO, 1WAT): 9 (Plant is dead.) | injury (0-9) ([2]; 50 g/ha + 1% MSO, 3DAT): 9 (Plant is dead.) | injury (0-9) ([2]; 100 g/ha + 1% MSO, 1WAT): 9 (Plant is dead.) | injury (0-9) ([2]; 100 g/ha + 1% MSO, 3DAT): 9 (Plant is dead.) | injury (0-9) ([3]; 25 g/ha + 1% MSO, 1WAT): 9 (Plant is dead.) | injury (0-9) ([3]; 25 g/ha + 1% MSO, 3DAT): 9 (Plant is dead.) | injury (0-9) ([3]; 50 g/ha + 1% MSO, 1WAT): 9 (Plant is dead.) | injury (0-9) ([3]; 50 g/ha + 1% MSO, 3DAT): 9 (Plant is dead.) | injury (0-9) ([3]; 100 g/ha + 1% MSO, 1WAT): 9 (Plant is dead.) | injury (0-9) ([3]; 100 g/ha + 1% MSO, 3DAT): 9 (Plant is dead.)

COC(=O)C(OC)Oc1ccccc1Oc1cc(-n2c(=O)cc(C(F)(F)F)n(C)c2=O)c(F)cc1Br (stereo not drawn) [phenyluracil 1, methyl 2-[2-[2-bromo-4-fluoro-5-[3-methyl-2,6-dioxo-4-(trifluoromethyl)pyrimidin-1-yl]phenoxy]phenoxy]-2-methoxy-acetate]
pIC50 [1]: 9.15

Reference: US20250127169A1, “PLANTS HAVING INCREASED TOLERANCE TO HERBICIDES” (BASF Agricultural Solutions Seed US LLC, priority 2021, published 2025)
